Source: publication PMC8566089 (Bioorganic Chemistry, 2021)
Like-named read-outs stand apart in the source and are kept apart here.

Experiments:
[1] = tested on: HCT116 (colon cancer cell line); experiment: PI-flow cytometry cell cycle analysis; format: cell-based
[2] = tested on: HCT116 (colon cancer cell line); experiment: Annexin V-FITC apoptosis/necrosis study; format: cell-based; conditions: at MTT-IC50 of the agent
[3] = tested on: A431 (squamous skin) cancer cell line; experiment: MTT antiproliferative assay, A431; format: cell-based; conditions: for IC50: Homo sapiens, A-431, 72 h, read-out: IC50 ± SE, A431; for SI (selectivity index), A431: IC50 of RPE1 relative to that of A431
[4] = tested on: MCF7 (breast) cancer cell line; experiment: MTT antiproliferative assay, MCF7; format: cell-based; conditions: for IC50: Homo sapiens, MCF7, 72 h, read-out: IC50 ± SE, MCF7; for SI (selectivity index), MCF7: IC50 of RPE1 relative to that of MCF7
[5] = tested on: HCT116 (colon) cancer cell line; experiment: MTT antiproliferative assay, HCT116; format: cell-based; conditions: for IC50: Homo sapiens, HCT-116, 72 h, read-out: IC50 ± SE, HCT116; for SI (selectivity index), HCT116: IC50 of RPE1 relative to that of HCT116
[6] = tested on: RPE1 (normal human immortalized retinal pigment epithelial cell line); experiment: MTT assay against normal RPE1 cells; format: cell-based; conditions: RPE-1, read-out: IC50 ± SE, RPE1
VEGFR-2 [7] = target: T1, VEGFR-2 (Homo sapiens, UniProt P35968); experiment: VEGFR-2 Western blot in MCF7; format: cell-based; conditions: for VEGFR2 MCF7 % Inhibition: Western blot at MTT-IC50; for VEGFR2 MCF7 RQ (relative quantification): Western blot at MTT-IC50, control RQ 3.725
VEGFR-2 [8] = target: T1, VEGFR-2; experiment: VEGFR-2 Western blot in HCT116; format: cell-based; conditions: for VEGFR2 HCT116 % Inhibition: Western blot at MTT-IC50; for VEGFR2 HCT116 RQ (relative quantification): Western blot at MTT-IC50, control RQ 3.817
EGFR [9] = target: T2, EGFR (Homo sapiens, UniProt P00533); experiment: EGFR Western blot in MCF7; format: cell-based; conditions: for EGFR MCF7 % Inhibition: Western blot at MTT-IC50; for EGFR MCF7 RQ (relative quantification): Western blot at MTT-IC50, control RQ 4.226
EGFR [10] = target: T2, EGFR; experiment: EGFR Western blot in HCT116; format: cell-based; conditions: for EGFR HCT116 % Inhibition: Western blot at MTT-IC50; for EGFR HCT116 RQ (relative quantification): Western blot at MTT-IC50, control RQ 4.0382
COX-1 = target: T3, COX-1 (Ovis aries, UniProt P05979); experiment: COX-1 inhibitor screening kit; format: biochemical
T3 sequence (P05979 25-600): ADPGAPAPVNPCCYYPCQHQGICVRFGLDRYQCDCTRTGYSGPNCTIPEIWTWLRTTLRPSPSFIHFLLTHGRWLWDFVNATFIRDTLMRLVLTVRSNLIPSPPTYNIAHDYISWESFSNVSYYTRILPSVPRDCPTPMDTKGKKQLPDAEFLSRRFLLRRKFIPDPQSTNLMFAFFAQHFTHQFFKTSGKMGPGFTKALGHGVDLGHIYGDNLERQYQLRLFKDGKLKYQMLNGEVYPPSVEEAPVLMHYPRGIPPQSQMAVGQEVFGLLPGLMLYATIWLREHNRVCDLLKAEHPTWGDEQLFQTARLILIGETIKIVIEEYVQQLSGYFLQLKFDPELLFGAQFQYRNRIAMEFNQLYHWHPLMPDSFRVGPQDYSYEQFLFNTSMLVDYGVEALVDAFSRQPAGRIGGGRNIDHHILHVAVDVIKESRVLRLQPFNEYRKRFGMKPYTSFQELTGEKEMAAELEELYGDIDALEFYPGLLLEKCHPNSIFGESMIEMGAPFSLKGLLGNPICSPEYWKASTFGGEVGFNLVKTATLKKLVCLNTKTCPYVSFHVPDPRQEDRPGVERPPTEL

COX-2 = target: T4, COX-2 (Homo sapiens, UniProt P35354); experiment: COX-2 inhibitor screening kit; format: biochemical
T4 sequence (P35354 18-604): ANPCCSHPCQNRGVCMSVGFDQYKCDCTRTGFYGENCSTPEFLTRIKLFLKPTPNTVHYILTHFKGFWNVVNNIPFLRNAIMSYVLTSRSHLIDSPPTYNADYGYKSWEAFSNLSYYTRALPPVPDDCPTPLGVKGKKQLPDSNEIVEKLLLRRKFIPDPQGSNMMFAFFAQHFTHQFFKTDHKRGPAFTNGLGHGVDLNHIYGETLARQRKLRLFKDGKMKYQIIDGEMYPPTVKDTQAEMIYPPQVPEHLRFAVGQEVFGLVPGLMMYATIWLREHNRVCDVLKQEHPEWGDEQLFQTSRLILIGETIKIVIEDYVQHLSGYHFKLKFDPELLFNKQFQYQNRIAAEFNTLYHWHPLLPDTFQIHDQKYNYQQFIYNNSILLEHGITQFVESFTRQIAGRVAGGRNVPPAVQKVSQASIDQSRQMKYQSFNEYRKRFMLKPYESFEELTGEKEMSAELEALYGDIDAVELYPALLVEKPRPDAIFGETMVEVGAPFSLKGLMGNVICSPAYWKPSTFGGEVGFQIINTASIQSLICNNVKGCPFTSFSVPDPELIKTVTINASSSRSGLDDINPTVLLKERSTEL

[11] = tested on: SARS-CoV-2 (hCoV-19/Egypt/NRC-03/2020); conditions: SARS-CoV-2 / VERO-E6

T2 sequence (P00533 25-1210): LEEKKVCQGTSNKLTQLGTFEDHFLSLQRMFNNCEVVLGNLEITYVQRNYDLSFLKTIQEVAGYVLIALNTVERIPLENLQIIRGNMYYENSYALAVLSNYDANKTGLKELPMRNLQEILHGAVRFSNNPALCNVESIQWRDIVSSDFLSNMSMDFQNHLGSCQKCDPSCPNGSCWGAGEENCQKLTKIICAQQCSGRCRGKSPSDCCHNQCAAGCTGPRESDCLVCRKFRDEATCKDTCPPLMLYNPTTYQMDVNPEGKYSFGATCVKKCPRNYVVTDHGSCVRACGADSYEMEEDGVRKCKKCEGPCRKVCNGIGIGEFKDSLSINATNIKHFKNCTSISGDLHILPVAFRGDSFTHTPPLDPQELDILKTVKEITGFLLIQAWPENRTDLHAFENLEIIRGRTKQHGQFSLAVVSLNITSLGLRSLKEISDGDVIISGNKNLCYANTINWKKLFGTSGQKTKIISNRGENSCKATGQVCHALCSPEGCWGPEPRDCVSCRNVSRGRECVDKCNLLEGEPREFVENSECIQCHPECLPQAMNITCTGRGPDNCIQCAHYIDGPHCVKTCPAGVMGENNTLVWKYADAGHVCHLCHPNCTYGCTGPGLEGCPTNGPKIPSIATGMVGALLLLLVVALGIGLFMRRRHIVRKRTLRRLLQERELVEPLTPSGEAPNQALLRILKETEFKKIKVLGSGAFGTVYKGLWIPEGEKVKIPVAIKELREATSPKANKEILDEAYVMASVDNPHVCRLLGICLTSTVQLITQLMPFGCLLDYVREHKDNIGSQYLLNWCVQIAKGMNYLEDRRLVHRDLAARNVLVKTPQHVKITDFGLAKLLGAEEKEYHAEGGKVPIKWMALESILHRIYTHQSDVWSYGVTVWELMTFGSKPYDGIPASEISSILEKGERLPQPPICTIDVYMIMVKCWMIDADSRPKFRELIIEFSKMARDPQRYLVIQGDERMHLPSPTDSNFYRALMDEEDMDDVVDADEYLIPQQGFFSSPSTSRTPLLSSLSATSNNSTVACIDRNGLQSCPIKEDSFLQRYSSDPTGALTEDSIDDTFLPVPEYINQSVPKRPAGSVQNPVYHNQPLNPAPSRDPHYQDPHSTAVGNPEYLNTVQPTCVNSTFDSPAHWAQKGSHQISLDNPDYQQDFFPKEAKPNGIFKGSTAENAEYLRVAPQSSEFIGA
T1 sequence (P35968 20-1356): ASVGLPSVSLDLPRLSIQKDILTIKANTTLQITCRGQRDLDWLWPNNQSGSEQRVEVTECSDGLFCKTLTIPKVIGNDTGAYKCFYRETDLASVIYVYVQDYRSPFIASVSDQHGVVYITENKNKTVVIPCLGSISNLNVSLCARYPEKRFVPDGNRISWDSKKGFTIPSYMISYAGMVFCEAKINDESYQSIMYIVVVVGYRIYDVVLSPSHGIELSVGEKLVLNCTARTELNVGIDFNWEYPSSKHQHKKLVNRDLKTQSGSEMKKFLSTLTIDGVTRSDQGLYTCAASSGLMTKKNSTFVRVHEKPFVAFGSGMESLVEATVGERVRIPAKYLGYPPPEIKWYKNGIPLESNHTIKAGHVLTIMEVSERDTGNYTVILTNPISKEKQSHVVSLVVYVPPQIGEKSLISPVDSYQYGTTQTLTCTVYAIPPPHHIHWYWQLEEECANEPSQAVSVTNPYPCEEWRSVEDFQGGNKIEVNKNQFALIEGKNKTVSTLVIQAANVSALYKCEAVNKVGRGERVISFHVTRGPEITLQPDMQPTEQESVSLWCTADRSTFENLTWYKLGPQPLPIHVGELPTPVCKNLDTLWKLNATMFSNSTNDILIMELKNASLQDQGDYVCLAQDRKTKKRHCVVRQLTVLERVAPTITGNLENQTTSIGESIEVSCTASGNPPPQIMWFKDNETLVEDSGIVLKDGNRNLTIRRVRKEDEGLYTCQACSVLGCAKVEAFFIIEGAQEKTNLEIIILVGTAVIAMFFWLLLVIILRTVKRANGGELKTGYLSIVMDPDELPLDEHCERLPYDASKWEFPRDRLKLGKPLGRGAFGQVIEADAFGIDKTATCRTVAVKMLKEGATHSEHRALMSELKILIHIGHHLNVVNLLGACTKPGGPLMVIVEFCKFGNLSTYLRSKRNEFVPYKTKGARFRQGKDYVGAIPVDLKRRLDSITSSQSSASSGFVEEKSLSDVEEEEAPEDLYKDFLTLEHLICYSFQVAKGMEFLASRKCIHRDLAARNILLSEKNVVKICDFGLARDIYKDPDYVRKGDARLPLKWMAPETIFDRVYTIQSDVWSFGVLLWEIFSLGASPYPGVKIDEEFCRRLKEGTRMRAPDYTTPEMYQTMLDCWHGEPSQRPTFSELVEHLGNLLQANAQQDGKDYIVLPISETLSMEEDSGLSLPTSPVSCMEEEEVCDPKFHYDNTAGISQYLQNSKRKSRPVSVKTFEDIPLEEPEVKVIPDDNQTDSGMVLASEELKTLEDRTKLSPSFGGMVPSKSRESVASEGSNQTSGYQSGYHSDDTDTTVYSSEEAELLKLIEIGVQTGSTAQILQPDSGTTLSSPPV

SMILES | IC50 [3] | SI (selectivity index), A431 [3] | IC50 [4] | SI (selectivity index), MCF7 [4] | IC50 [5] | SI (selectivity index), HCT116 [5] | IC50 [6] | VEGFR2 MCF7 % Inhibition (VEGFR-2 [7]) | VEGFR2 MCF7 RQ (relative quantification) (VEGFR-2 [7]) | VEGFR2 HCT116 % Inhibition (VEGFR-2 [8]) | VEGFR2 HCT116 RQ (relative quantification) (VEGFR-2 [8]) | EGFR MCF7 % Inhibition (EGFR [9]) | EGFR MCF7 RQ (relative quantification) (EGFR [9]) | EGFR HCT116 % Inhibition (EGFR [10]) | EGFR HCT116 RQ (relative quantification) (EGFR [10]) | IC50 (COX-1) | IC50 (COX-2) | SI = IC50(COX-1)/IC50(COX-2) (COX-2) | SI = CC50/IC50 [11] | further results
CCN(CC)CCNC(=O)c1c(C)[nH]c(/C=C2\C(=O)Nc3ccc(F)cc32)c1C [Sunitinib, reference compound] | – | – | – | – | – | – | – | – | – | – | – | – | – | – | – | – | – | – | – | phase of cell cycle arrest ([1]; PI-flow cytometry): S-phase; DNA content (%) G0-G1 ([1]; at MTT-IC50 of the agent): 46.18%; DNA content (%) G2/M ([1]; at MTT-IC50 of the agent): 7.59%; DNA content (%) Pre-G1 ([1]; at MTT-IC50 of the agent): 31.69%; DNA content (%) S ([1]; at MTT-IC50 of the agent): 46.23%; Apoptosis (%) Early [2]: 2.54%; Apoptosis (%) Late [2]: 21.69%; Apoptosis (%) Total [2]: 31.69%; Necrosis (%) [2]: 7.46%
COc1ccc(/C=C2\CN(C(=O)c3cc(Cl)ccc3OC(C)=O)C/C(=C\c3ccc(OC)cc3)C2=O)cc1 [Compound 5m, 2-[3,5-Bis((E)-4-methoxybenzylidene)-4-oxopiperidine-1-carbonyl]-4-chlorophenyl acetate] | 3810 ± 290 nM | 1.9 | 5060 ± 450 nM | 1.43 | 5940 ± 460 nM | 1.22 | 7230 ± 510 nM | 47.2% | 1.966 | 70.4% | 1.13 | 62.4% | 1.59 | 68.5% | 1.273 | 146 nM | 319 nM | 0.452–0.467 | 138.7 | SI = IC50(COX-1)/IC50(COX-2) (COX-2; listed as 5 m): 0.458
COc1ccc(/C=C2\CN(C(=O)c3ccccc3OC(C)=O)C/C(=C\c3ccc(OC)c(OC)c3)C2=O)cc1OC [Compound 5g, 2-[3,5-Bis((E)-3,4-dimethoxybenzylidene)-4-oxopiperidine-1-carbonyl]phenyl acetate] | 973 ± 70 nM | 10.6 | 4970 ± 420 nM | 2.08 | 2390 ± 210 nM | 4.32 | 10300 ± 1100 nM | 37.6% | 2.324 | 37.3% | 2.393 | 61.2% | 1.638 | 61.5% | 1.554 | 262 nM | 2180 nM | 0.120 | 57.5 | –
CC(=O)Oc1ccc(Cl)cc1C(=O)N1C/C(=C\c2ccc(Cl)cc2)C(=O)/C(=C/c2ccc(Cl)cc2)C1 [Compound 5k, 2-[3,5-Bis((E)-4-chlorobenzylidene)-4-oxopiperidine-1-carbonyl]-4-chlorophenyl acetate] | 417 ± 30 nM | 18.6 | 4070 ± 330 nM | 1.91 | 1970 ± 170 nM | 3.94 | 7770 ± 560 nM | 59.7% | 1.5 | 68.6% | 1.2 | 69.0% | 1.31 | 63.4% | 1.479 | 391 nM | 676 nM | 0.578 | 10.3 | –
COc1ccc(/C=C2\CN(C(=O)c3cc(Cl)ccc3OC(C)=O)C/C(=C\c3ccc(OC)c(OC)c3)C2=O)cc1OC [Compound 5n, 2-[3,5-Bis((E)-3,4-dimethoxybenzylidene)-4-oxopiperidine-1-carbonyl]-4-chlorophenyl acetate] | 444 ± 40 nM | 17.7 | 4390 ± 400 nM | 1.79 | 1490 ± 170 nM | 5.30 | 7870 ± 620 nM | 37.2% | 2.338 | 37.4% | 2.389 | 56.8% | 1.825 | 60.1% | 1.610 | 163 nM | 361 nM | 0.452 | 88.9 | –
CC(=O)Oc1ccccc1C(=O)N1C/C(=C\c2ccccc2)C(=O)/C(=C/c2ccccc2)C1 [Compound 5a, 2-[3,5-Di((E)-benzylidene)-4-oxopiperidine-1-carbonyl]phenyl acetate] | 4490 ± 410 nM | 2.4 | 4740 ± 380 nM | 2.25 | 4720 ± 420 nM | 2.25 | 10600 ± 1040 nM | 64.6% | 1.32 | 67.5% | 1.24 | 90.3% | 0.41 | 69.3% | 1.24 | 249 nM | 1550 nM | 0.161 | 18.5 | –
CC(=O)Oc1ccc(Cl)cc1C(=O)N1C/C(=C\c2ccccc2)C(=O)/C(=C/c2ccccc2)C1 [Compound 5j, 4-Chloro-2-[3,5-di((E)-benzylidene)-4-oxopiperidine-1-carbonyl]phenyl acetate] | 2510 ± 180 nM | 3.7 | 4500 ± 390 nM | 2.06 | 2620 ± 190 nM | 3.53 | 9260 ± 750 nM | 49.0% | 1.9 | 79.0% | 0.8 | 65.7% | 1.45 | 68.5% | 1.273 | 142 nM | 1190 nM | 0.120 | 5.7 | –
CC(=O)Oc1ccc(Cl)cc1C(=O)N1C/C(=C\c2cccs2)C(=O)/C(=C/c2cccs2)C1 [Compound 5p, 4-Chloro-2-[(3E,5E)-4-oxo-3,5-bis(thiophen-2-ylmethylene)piperidine-1-carbonyl]phenyl acetate] | 6250 ± 490 nM | 3.2 | 6250 ± 610 nM | 3.18 | 6380 ± 440 nM | 3.12 | 19900 ± 1210 nM | 40.7% | 2.209 | 39.6% | 2.304 | 59.0% | 1.731 | 56.3% | 1.763 | 285 nM | 138 nM | 2.065 | 233.6 | –
